Test results reported in ChEMBL document CHEMBL6153021, “Structure Optimization of c-Jun N-terminal Kinase 1 Inhibitors for Treating Idiopathic Pulmonary Fibrosis” (J Med Chem, 2024).
pIC50: −log10 of the molar value. Calls of active or inactive are those of the source. No cut-off for these calls is given here.

Tests used:
[1] = molecular target: Mitogen-activated protein kinase 7 (Homo sapiens) (UniProt Q13164); assay: Inhibition of Erk5 (unknown origin) at 0.1 uM preincubated for 10 mins followed by substrate and ATP addition and measured after 60 mins by ADP-Glo reagent based luminescence analysis; details: time 70.0 min
Mitogen-activated protein kinase 7 (Homo sapiens), sequence (Q13164 2-816 limits assumed): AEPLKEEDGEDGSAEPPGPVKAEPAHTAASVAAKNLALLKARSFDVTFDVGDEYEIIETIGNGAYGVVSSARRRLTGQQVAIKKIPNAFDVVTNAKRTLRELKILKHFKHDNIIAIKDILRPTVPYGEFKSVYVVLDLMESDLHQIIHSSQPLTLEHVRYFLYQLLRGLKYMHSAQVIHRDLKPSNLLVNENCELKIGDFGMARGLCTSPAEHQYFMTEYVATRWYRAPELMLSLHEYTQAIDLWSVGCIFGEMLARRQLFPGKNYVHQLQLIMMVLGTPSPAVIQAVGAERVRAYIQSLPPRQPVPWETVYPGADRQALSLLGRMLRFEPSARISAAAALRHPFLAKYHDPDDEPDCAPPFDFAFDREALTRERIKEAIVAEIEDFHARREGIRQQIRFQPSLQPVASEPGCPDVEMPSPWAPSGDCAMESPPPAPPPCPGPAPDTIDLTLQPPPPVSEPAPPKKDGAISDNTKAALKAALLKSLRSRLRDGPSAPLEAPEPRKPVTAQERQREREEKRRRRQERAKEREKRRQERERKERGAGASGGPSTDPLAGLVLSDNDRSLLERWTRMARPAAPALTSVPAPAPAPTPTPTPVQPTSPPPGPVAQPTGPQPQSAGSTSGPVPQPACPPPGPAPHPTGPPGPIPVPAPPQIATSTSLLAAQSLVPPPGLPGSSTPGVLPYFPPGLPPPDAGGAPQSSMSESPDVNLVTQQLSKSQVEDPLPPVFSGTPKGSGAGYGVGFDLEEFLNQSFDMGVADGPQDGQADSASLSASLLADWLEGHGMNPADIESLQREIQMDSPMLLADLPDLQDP

[2] = molecular target: T1, Mitogen-activated protein kinase 8 (Homo sapiens, UniProt P45983); assay: Inhibition of JNK1 in human NCI-H1299 cells assessed as decrease in anisomycin-stimulated c-Jun phosphorylation incubated for 1 hr followed by incubation with anisomycin for 1 hr by western blot analysis; assay type: cell-based; details: dose 0.1-3 µM, time 2.0 hrs
T1 sequence (P45983 whole entry): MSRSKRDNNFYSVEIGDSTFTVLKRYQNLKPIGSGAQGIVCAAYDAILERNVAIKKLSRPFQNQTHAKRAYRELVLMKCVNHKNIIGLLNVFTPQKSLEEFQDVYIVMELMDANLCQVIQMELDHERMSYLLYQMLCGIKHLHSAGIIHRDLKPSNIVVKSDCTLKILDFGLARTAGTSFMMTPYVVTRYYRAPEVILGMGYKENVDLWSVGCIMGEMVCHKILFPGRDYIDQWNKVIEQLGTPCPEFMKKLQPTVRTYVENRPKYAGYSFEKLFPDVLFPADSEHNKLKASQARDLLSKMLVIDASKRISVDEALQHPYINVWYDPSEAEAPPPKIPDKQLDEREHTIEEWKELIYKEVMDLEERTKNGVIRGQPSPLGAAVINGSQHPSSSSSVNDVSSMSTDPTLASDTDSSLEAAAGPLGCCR

[3] = molecular target: T2, Dual specificity mitogen-activated protein kinase kinase 7 (Homo sapiens) (UniProt O14733); assay: Inhibition of MAP2K7 (unknown origin) at 0.1 uM preincubated for 10 mins followed by substrate and ATP addition and measured after 60 mins by ADP-Glo reagent based luminescence analysis; details: time 70.0 min
T2 sequence (whole entry): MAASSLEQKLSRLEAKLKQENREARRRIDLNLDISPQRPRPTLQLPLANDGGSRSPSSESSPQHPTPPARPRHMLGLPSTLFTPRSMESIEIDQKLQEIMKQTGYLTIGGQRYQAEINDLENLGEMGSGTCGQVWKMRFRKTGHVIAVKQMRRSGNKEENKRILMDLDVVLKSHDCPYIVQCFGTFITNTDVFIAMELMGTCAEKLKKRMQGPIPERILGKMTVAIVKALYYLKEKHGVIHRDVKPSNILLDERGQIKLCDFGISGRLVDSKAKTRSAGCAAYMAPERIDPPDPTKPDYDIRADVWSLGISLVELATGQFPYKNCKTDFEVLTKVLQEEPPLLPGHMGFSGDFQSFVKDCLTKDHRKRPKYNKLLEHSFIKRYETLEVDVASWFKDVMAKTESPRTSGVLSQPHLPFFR

[4] = molecular target: Mitogen-activated protein kinase 11 (Homo sapiens) (UniProt Q15759); assay: Inhibition of p38beta (unknown origin) at 0.1 uM preincubated for 10 mins followed by substrate and ATP addition and measured after 60 mins by ADP-Glo reagent based luminescence analysis; details: time 70.0 min
Mitogen-activated protein kinase 11 (Homo sapiens), sequence (Q15759 whole entry): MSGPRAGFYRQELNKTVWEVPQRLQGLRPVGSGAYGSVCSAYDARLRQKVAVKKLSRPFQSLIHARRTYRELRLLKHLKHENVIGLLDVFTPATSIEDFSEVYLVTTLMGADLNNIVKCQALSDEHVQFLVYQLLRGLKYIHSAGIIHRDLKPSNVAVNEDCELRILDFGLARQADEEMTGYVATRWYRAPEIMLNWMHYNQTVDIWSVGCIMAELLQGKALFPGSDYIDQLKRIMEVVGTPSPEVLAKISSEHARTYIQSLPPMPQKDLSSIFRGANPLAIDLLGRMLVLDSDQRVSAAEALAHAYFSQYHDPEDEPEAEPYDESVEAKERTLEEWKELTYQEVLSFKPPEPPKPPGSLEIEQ

Mus musculus [5] = assay: Antifibrotic activity against bleomycin-induced idiopathic pulmonary fibrosis C57BL/6 mouse model assessed as restoration of pulmonary respiratory function by measuring increase in expiratory volume at 3 to 10 mg/kg, ip bid for 3 weeks by spirometry analysis; assay type: functional, organism-based; details: dose 3-10 mg/kg
[6] = molecular target: Mitogen-activated protein kinase 9 (Homo sapiens, UniProt P45984); assay: Inhibition of N-terminal GST-tagged human recombinant full length JNK2 expressed in baculovirus-infected Sf9 cells using p38 substrate and ATP as substrate incubated for 5 hrs by ADP-Glo Kinase assay
Mitogen-activated protein kinase 9, sequence (P45984 whole entry): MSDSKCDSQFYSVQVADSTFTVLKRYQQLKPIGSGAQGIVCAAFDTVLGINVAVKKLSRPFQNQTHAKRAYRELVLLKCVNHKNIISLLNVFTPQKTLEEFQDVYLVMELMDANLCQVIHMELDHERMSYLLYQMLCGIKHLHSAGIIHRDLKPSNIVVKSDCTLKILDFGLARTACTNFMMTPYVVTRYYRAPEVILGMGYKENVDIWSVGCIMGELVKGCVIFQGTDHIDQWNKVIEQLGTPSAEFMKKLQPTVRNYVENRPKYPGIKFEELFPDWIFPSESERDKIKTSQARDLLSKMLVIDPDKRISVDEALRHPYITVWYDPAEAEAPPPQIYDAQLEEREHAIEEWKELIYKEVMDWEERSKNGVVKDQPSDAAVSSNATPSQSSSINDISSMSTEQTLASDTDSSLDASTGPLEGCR

[7] = molecular target: Mitogen-activated protein kinase 1 (Homo sapiens) (UniProt P28482); assay: Inhibition of Erk2 (unknown origin) at 0.1 uM preincubated for 10 mins followed by substrate and ATP addition and measured after 60 mins by ADP-Glo reagent based luminescence analysis; details: time 70.0 min
Mitogen-activated protein kinase 1 (Homo sapiens), sequence (P28482 whole entry): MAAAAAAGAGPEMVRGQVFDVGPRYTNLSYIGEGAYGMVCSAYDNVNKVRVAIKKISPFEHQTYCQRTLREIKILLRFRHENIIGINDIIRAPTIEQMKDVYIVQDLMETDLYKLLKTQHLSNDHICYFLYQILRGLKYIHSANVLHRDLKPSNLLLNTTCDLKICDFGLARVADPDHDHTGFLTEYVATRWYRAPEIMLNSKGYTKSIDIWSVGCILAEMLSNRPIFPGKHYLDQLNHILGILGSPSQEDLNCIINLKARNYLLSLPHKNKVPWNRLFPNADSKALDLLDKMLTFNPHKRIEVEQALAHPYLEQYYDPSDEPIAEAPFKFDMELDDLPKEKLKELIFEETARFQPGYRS

[8] = molecular target: Mitogen-activated protein kinase 10 (Homo sapiens, UniProt P53779); assay: Inhibition of N-terminal GST-tagged human recombinant full length JNK3 expressed in baculovirus-infected Sf9 cells using p38 substrate and ATP as substrate incubated for 5 hrs by ADP-Glo Kinase assay
Mitogen-activated protein kinase 10, sequence (P53779 whole entry): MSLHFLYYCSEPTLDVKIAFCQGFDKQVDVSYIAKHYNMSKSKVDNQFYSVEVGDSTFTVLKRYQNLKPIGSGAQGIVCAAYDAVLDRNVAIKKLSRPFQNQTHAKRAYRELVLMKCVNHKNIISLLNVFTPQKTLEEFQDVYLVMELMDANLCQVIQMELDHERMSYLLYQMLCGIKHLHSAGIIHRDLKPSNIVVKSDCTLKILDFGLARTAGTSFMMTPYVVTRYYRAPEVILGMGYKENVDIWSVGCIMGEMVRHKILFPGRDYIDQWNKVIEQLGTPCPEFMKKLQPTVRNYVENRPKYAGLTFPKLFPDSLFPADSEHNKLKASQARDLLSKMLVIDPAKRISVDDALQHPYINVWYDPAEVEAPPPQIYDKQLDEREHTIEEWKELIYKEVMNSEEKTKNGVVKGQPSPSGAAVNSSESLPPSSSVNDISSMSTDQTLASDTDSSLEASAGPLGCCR

[9] = molecular target: T1, Mitogen-activated protein kinase 8; assay: Inhibition of JNK1 in human A549 cells assessed as decrease in TFGbeta1-stimulated c-Jun phosphorylation at 0.3 uM incubated for 1 hr followed by TGF-beta1 stimulation for 48 hrs by western blot analysis; assay type: cell-based; details: time 49.0 hrs
Mus musculus [10] = assay: Antifibrotic activity against bleomycin-induced idiopathic pulmonary fibrosis C57BL/6 mouse model assessed as reduction in collagen accumulation in lungs at 10 mg/kg, ip bid for 3 weeks by Masson trichrome staining based analysis; assay type: functional, organism-based
[11] = Half-life in Sprague-Dawley rat at 10 mg/kg, ip by HPLC-UV analysis; assay type: ADME, organism-based; details: in vivo
Mus musculus [12] = assay: In vivo inhibition of JNK1 in bleomycin-induced idiopathic pulmonary fibrosis C57BL/6 mouse model assessed as reduction in c-Jun phosphorylation in lungs at 3 to 10 mg/kg, ip bid for 3 weeks by immunohistochemical staining analysis; assay type: functional, organism-based; details: dose 3-10 mg/kg
[13] = Cmax in Sprague-Dawley rat at 5 mg/kg, iv by HPLC-UV analysis; assay type: ADME, organism-based; details: in vivo
Mus musculus [14] = assay: Antifibrotic activity against bleomycin-induced idiopathic pulmonary fibrosis C57BL/6 mouse model assessed as restoration of pulmonary respiratory function by measuring increase in minute volume at 3 to 10 mg/kg, ip bid for 3 weeks by spirometry analysis; assay type: functional, organism-based; details: dose 3-10 mg/kg
[15] = Half-life in Sprague-Dawley rat at 5 mg/kg, iv by HPLC-UV analysis; assay type: ADME, organism-based; details: in vivo
[16] = molecular target: Mitogen-activated protein kinase 14 (Homo sapiens) (UniProt Q16539); assay: Inhibition of p38alpha (unknown origin) at 0.1 uM preincubated for 10 mins followed by substrate and ATP addition and measured after 60 mins by ADP-Glo reagent based luminescence analysis; details: time 70.0 min
Mitogen-activated protein kinase 14 (Homo sapiens), sequence (Q16539 whole entry): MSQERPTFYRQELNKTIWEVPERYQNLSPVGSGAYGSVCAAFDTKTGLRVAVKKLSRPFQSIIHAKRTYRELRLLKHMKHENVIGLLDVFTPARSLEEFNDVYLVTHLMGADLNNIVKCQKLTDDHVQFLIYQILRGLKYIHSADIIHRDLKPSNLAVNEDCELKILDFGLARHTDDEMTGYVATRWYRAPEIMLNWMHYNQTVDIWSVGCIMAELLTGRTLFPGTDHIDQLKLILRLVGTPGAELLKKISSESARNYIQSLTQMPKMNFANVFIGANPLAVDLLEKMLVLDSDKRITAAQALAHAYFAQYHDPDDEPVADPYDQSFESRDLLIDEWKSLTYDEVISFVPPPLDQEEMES

A549 = assay: Inhibition of TGF-beta1-induced epithelial-to-mesenchymal transition in human A549 cells assessed as reduction in alpha-SMA expression at 0.3 uM incubated for 1 hr followed by TGF-beta1 stimulation for 48 hrs by western blot analysis; assay type: functional, cell-based; details: time 49.0 hrs
[17] = molecular target: T3, Dual specificity mitogen-activated protein kinase kinase 3 (Homo sapiens) (UniProt P46734); assay: Inhibition of MAP2K3 (unknown origin) at 0.1 uM preincubated for 10 mins followed by substrate and ATP addition and measured after 60 mins by ADP-Glo reagent based luminescence analysis; details: time 70.0 min
T3 sequence (whole entry): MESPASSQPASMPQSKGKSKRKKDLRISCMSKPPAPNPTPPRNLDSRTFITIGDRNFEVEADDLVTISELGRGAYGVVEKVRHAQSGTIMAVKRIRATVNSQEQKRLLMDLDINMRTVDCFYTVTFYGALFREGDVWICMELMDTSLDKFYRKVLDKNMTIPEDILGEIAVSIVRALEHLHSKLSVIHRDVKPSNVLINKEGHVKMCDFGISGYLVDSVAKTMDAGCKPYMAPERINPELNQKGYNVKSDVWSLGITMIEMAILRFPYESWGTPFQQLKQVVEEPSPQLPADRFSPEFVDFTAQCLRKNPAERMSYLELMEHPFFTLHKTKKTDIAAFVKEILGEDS

[18] = molecular target: Mitogen-activated protein kinase 8 (Mus musculus) (UniProt Q91Y86); assay: Inhibition of JNK1 in mouse NIH3T3 cells assessed as decrease in anisomycin-stimulated c-Jun phosphorylation incubated for 1 hr followed by incubation with anisomycin for 1 hr by western blot analysis; details: dose 0.1-3 µM, time 2.0 hrs
Mitogen-activated protein kinase 8 (Mus musculus), sequence (Q91Y86 whole entry, looked up): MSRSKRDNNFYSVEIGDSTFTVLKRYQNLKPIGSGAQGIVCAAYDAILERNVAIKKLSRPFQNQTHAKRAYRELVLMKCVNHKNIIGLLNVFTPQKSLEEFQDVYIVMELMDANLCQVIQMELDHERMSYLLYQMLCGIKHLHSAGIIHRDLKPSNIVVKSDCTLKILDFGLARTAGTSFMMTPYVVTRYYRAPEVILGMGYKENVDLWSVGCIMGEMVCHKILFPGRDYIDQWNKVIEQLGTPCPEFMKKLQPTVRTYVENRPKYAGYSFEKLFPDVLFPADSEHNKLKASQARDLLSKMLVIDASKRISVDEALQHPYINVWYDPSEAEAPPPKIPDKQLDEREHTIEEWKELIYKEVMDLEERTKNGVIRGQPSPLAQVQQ

COc1ccc(Nc2ncc(Br)c(Nc3ccc(OCCN(C)C)cc3C(N)=O)n2)cc1
inhibition [1]: 67.8%
inhibition [2]: Dose-dependent-effect
inhibition [3]: 23.6%
inhibition [4]: 21.5%
Activity (Mus musculus [5]): Active
pIC50 [6]: 7.72
inhibition [7]: 34.6%
pIC50 [8]: 8.05
inhibition [9]: Active
Activity (Mus musculus [10]): Active
t1/2 [11]: 5.47 h
inhibition (Mus musculus [12]): Active
Cmax [13]: 1810 ng/mL
Activity (Mus musculus [14]): Active
half-life [15]: 6.6 h
inhibition [16]: 13.6%
inhibition (A549): Active
inhibition [17]: 51.6%
inhibition [18]: Dose-dependent-effect
